From US11479559B2, “Urea-substituted aromatic ring-linked dioxinoquinoline compounds, preparation method and uses thereof” (BEIJING SCITECH-MQ PHARMACEUTICALS LIMITED, priority 2018, dated 2022)
Read-outs that look alike come from different tables or passages of the source.

Tests used:
[1] = target: RET tyrosine kinase (Homo sapiens (Human), UniProt P07949); assay: Assay of small molecular compounds for inhibiting the activity of RET kinase (LANCE TR-FRET)
[2] = target: VEGFR2 tyrosine kinase (Homo sapiens (Human), UniProt P35968); assay: Assay of small molecular compounds for inhibiting the activity of VEGFR-2 kinase (LANCE TR-FRET)
Chain of VEGFR2 tyrosine kinase (P35968 20-1356): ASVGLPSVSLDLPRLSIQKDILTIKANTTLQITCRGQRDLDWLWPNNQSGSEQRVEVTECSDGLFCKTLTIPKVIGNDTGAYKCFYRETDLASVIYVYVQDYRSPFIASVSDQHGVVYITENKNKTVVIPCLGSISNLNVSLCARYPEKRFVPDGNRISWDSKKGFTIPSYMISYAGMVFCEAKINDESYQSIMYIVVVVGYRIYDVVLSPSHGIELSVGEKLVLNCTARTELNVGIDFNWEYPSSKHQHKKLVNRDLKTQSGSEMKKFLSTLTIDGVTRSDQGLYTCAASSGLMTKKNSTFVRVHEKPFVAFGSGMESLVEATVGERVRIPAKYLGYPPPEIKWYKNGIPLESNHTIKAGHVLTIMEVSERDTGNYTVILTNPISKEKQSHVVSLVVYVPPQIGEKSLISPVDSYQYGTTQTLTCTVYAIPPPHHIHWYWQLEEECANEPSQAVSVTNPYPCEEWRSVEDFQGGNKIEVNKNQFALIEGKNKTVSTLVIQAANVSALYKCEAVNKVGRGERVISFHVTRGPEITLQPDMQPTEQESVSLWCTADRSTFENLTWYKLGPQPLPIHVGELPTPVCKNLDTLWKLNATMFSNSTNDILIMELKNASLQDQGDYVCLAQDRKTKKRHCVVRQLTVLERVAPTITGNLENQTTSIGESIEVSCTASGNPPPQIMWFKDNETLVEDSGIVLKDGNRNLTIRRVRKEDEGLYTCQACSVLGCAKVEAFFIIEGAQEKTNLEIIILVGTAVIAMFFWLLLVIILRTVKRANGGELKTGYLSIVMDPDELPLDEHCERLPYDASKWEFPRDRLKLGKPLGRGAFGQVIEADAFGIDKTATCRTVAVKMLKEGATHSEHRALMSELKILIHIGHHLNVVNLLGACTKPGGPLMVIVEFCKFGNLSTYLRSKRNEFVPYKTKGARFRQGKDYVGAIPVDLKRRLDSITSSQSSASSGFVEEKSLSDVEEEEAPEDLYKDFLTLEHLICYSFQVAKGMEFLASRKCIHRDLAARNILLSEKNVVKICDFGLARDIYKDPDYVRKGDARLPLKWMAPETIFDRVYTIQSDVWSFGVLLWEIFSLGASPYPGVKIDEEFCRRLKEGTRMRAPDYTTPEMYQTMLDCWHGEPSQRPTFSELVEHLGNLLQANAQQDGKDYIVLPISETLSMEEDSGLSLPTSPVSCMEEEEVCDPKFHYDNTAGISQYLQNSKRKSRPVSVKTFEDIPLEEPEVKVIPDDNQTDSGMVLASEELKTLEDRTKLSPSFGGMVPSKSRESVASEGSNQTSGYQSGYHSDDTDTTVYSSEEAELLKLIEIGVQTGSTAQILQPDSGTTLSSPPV
Method: The assay is based on the LANCE TR-FRET technology of Perkin Elmer Inc., and the assay method is as follows:
2.5 μL of the gradient-diluted compounds were taken with a transfer pipette to a 384-well plate.
Addition of enzyme: 5 μL of 2× VEGFR2 kinase solution (concentration was 0.5 nM) was taken with a transfer pipette to the corresponding reaction well of the 384-well plate, mixed well and pre-reacted at room temperature for 30 minutes.
2.5 μL 4× Ultra ULight™-JAK-1 (Tyr1023) Peptide (concentration was 200 nM)/ATP (concentration was 40 μMM) mixture was taken with a transfer pipette to the corresponding reaction well of the 384-well plate.
Negative control: 2.5 μL/well 4× substrate/ATP mixture and 7.5 μL 1× Kinase Assay Buffer were added to the wells of the 384-well plate.
The final concentration of DMSO in the reaction system was 4%.
The mixture was mixed well and then centrifuged and reacted at room temperature in dark for 60 min.
The 384-well plate was placed into the Envision plate reader and the signal was detected using the appropriate program.

Chain of RET tyrosine kinase (P07949 29-1114): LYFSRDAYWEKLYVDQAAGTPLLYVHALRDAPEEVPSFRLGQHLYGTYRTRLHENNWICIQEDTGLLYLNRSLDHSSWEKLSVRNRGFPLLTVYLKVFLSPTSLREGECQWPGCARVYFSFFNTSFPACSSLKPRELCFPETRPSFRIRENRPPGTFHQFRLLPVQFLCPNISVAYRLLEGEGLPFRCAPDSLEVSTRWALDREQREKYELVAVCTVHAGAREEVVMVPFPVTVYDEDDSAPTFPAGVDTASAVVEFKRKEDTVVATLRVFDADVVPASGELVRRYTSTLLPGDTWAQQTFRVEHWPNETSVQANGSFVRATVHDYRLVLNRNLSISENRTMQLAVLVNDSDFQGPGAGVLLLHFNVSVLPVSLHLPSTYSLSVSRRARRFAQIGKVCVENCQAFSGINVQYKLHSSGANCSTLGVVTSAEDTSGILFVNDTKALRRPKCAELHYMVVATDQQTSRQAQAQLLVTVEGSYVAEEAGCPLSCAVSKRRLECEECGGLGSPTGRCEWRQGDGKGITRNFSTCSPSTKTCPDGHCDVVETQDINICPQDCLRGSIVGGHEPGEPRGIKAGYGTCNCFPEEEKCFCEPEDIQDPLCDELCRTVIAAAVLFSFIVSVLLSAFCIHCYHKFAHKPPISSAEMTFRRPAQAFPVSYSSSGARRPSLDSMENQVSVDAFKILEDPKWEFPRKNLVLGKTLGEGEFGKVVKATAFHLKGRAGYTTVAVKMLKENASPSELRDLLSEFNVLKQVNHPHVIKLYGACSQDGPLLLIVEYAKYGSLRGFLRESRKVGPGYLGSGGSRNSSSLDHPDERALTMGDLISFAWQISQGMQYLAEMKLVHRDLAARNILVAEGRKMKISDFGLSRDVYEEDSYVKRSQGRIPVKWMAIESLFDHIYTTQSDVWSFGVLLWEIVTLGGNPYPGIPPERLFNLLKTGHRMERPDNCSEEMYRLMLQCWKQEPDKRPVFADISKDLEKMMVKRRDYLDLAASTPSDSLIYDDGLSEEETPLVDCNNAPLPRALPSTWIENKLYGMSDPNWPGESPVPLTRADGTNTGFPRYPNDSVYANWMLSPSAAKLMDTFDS

| SMILES | IC50 ([1]; read-out: RET IC50) | IC50 [2] | IC50 ([2]; read-out: VEGFR-2 IC50) | IC50 [1] |
| --- | --- | --- | --- | --- |
| CN(C)CCCCCCOc1cc2nccc(Oc3ccc(NC(=O)Nc4ccc(Cl)c(C(F)(F)F)c4)cc3)c2c2c1OCCO2 [Example 30, 1-(4-chloro-3-(trifluoromethyl)phenyl)-3-(4-((5-((6-(dimethylamino)hexyl)oxy)-2,3-dihydro-[1,4]dioxino[2,3-f]quinolin-10-yl)oxy)phenyl)urea] | < 50 nM | 50 to 500 nM | – | – |
| CCOc1cc2nccc(Oc3ccc(NC(=O)NC4CC4)c(Cl)c3)c2c2c1OCCO2 [Example 43, 1-(2-chloro-4-((5-ethoxy-2,3-dihydro-[1,4]dioxino[2,3-f]quinolin-10-yl)oxy)phenyl)-3-cyclopropylurea] | < 50 nM | – | < 50 nM | – |
| CC1(O)CCN(CCCOc2cc3nccc(Oc4ccc(NC(=O)Nc5ccc(Cl)c(C(F)(F)F)c5)cc4)c3c3c2OCCO3)CC1 [Example 25, 1-(4-chloro-3-(trifluoromethyl)phenyl)-3-(4-((5-(3-(4-hydroxy-4-methylpiperidin-1-yl)propoxy)-2,3-dihydro-[1,4]dioxino[2,3-f]quinolin-10-yl)oxy)phenyl)urea] | < 50 nM | – | < 50 nM | – |
| CC(=O)N1CCN(CCCOc2cc3nccc(Oc4ccc(NC(=O)NC5CC5)c(Cl)c4)c3c3c2OCCO3)CC1 [Example 57, 1-(4-((5-(3-(4-acetylpiperazin-1-yl)propoxy)-2,3-dihydro-[1,4]dioxino[2,3-f]quinolin-10-yl)oxy)-2-chlorophenyl)-3-cyclopropylurea] | < 50 nM | – | < 50 nM | – |
| CNC(=O)Nc1ccc(Oc2ccnc3cc(OCCCN4CCOCC4)c4c(c23)OCCO4)cc1Cl [Example 85, 1-(2-chloro-4-((5-(3-morpholinopropoxy)-2,3-dihydro-[1,4]dioxino[2,3-f]quinolin-10-yl)oxy)phenyl)-3-methylurea] | – | < 50 nM | – | < 50 nM |
| O=C(Nc1ccc(Oc2ccnc3cc(OCCCN4CCOCC4)c4c(c23)OCCO4)cc1Cl)NC1CC1 [Example 55, 1-(2-chloro-4-((5-(3-morpholinopropoxy)-2,3-dihydro-[1,4]dioxino[2,3-f]quinolin-10-yl)oxy)phenyl)-3-cyclopropylurea] | < 50 nM | – | < 50 nM | – |
| CN(C)CCCCCCOc1cc2nccc(Oc3ccc(NC(=O)NC4CC4)c(Cl)c3)c2c2c1OCCO2 [Example 64, 1-(2-chloro-4-((5-((6-(dimethylamino)hexyl)oxy)-2,3-dihydro-[1,4]dioxino[2,3-f]quinolin-10-yl)oxy)phenyl)-3-cyclopropylurea] | < 50 nM | – | < 50 nM | – |
| COCCN(C)CCCOc1cc2nccc(Oc3ccc(NC(=O)Nc4ccc(Cl)c(C(F)(F)F)c4)cc3)c2c2c1OCCO2 [Example 27, 1-(4-chloro-3-(trifluoromethyl)phenyl)-3-(4-((5-(3-((2-methoxyethyl)(methyl)amino)propoxy)-2,3-dihydro-[1,4]dioxino[2,3-f]quinolin-10-yl)oxy)phenyl)urea] | < 50 nM | 50 to 500 nM | – | – |
| COc1cc2nccc(Oc3ccc(NC(=O)NC4CC4)c(Cl)c3)c2c2c1OCCO2 [Example 7, 1-(2-chloro-4-((5-methoxy-2,3-dihydro-[1,4]dioxino[2,3-f]quinolin-10-yl)oxy)phenyl)-3-cyclopropylurea] | – | < 50 nM | – | < 50 nM |
| CC(C)CNC(=O)Nc1ccc(Oc2ccnc3cc(OCCCN4CCOCC4)c4c(c23)OCCO4)cc1Cl [Example 89, 1-(2-chloro-4-((5-(3-morpholinopropoxy)-2,3-dihydro-[1,4]dioxino[2,3-f]quinolin-10-yl)oxy)phenyl)-3-isobutylurea] | < 50 nM | – | < 50 nM | – |
| N#CCOc1cc2nccc(Oc3ccc(NC(=O)NC4CC4)c(Cl)c3)c2c2c1OCCO2 [Example 47, 1-(2-chloro-4-((5-(cyanomethoxy)-2,3-dihydro-[1,4]dioxino[2,3-f]quinolin-10-yl)oxy)phenyl)-3-cyclopropylurea] | < 50 nM | – | < 50 nM | – |
| CC1(N)CCN(CCCOc2cc3nccc(Oc4ccc(NC(=O)NC5CC5)c(Cl)c4)c3c3c2OCCO3)CC1 [Example 61, 1-(4-((5-(3-(4-amino-4-methylpiperidin-1-yl)propoxy)-2,3-dihydro-[1,4]dioxino[2,3-f]quinolin-10-yl)oxy)-2-chlorophenyl)-3-cyclopropylurea] | < 50 nM | – | < 50 nM | – |
| Cc1ccc(C(F)(F)F)cc1NC(=O)Nc1ccc(Oc2ccnc3cc(OCCCN4CCOCC4)c4c(c23)OCCO4)cc1 [Example 96, 1-(2-methyl-5-(trifluoromethyl)phenyl)-3-(4-((5-(3-morpholinopropoxy)-2,3-dihydro-[1,4]dioxino[2,3-f]quinolin-10-yl)oxy)phenyl)urea] | < 50 nM | 50 to 500 nM | – | – |
| O=C(Nc1ccc(F)cc1)Nc1ccc(Oc2ccnc3cc(OCCCN4CCOCC4)c4c(c23)OCCO4)cc1 [Example 77, 1-(4-fluorophenyl)-3-(4-((5-(3-morpholinopropoxy)-2,3-dihydro-[1,4]dioxino[2,3-f]quinolin-10-yl)oxy)phenyl)urea] | < 50 nM | – | < 50 nM | – |
| COCCCOc1cc2nccc(Oc3ccc(NC(=O)NC4CCC4)c(Cl)c3)c2c2c1OCCO2 [Example 72, 1-(2-chloro-4-((5-(3-methoxypropoxy)-2,3-dihydro-[1,4]dioxino[2,3-f]quinolin-10-yl)oxy)phenyl)-3-cyclobutylurea] | < 50 nM | – | < 50 nM | – |
| COc1cc2nccc(Oc3ccc(NC(=O)Nc4ccc(Cl)c(C(F)(F)F)c4)cc3F)c2c2c1OCCO2 [Example 5, 1-(4-chloro-3-(trifluoromethyl)phenyl)-3-(3-fluoro-4-((5-methoxy-2,3-dihydro-[1,4]dioxino[2,3-f]quinolin-10-yl)oxy)phenyl)urea] | < 50 nM | – | 50 to 500 nM | – |
| CCNC(=O)Nc1ccc(Oc2ccnc3cc(OCCCN4CCOCC4)c4c(c23)OCCO4)cc1Cl [Example 86, 1-(2-chloro-4-((5-(3-morpholinopropoxy)-2,3-dihydro-[1,4]dioxino[2,3-f]quinolin-10-yl)oxy)phenyl)-3-ethylurea] | – | < 50 nM | – | < 50 nM |
| O=C(Nc1ccc(Oc2ccnc3cc(OCCCN4CCCC4)c4c(c23)OCCO4)cc1Cl)NC1CC1 [Example 53, 1-(2-chloro-4-((5-(3-(pyrrolidin-1-yl)propoxy)-2,3-dihydro-[1,4]dioxino[2,3-f]quinolin-10-yl)oxy)phenyl)-3-cyclopropylurea] | < 50 nM | – | < 50 nM | – |
| CC1(O)CCN(CCCOc2cc3nccc(Oc4ccc(NC(=O)NC5CC5)c(Cl)c4)c3c3c2OCCO3)CC1 [Example 60, 1-(2-chloro-4-((5-(3-(4-hydroxy-4-methylpiperidin-1-yl)propoxy)-2,3-dihydro-[1,4]dioxino[2,3-f]quinolin-10-yl)oxy)phenyl)-3-cyclopropylurea] | < 50 nM | – | < 50 nM | – |
| COc1cc2nccc(Oc3ccc(NC(=O)Nc4cc(C(F)(F)F)ccc4C)cc3)c2c2c1OCCO2 [Example 95, 1-(4-((5-methoxy-2,3-dihydro-[1,4]dioxino[2,3-f]quinolin-10-yl)oxy)phenyl)-3-(2-methyl-5-(trifluoromethyl)phenyl)urea] | < 50 nM | – | < 50 nM | – |
| COc1cc2nccc(Oc3ccc(NC(=O)Nc4ccc(Cl)c(C(F)(F)F)c4)cc3)c2c2c1OCCO2 [Example 1, 1-(4-chloro-3-(trifluoromethyl)phenyl)-3-(4-((5-methoxy-2,3-dihydro-[1,4]dioxino[2,3-f]quinolin-10-yl)oxy)phenyl)urea] | < 50 nM | – | < 50 nM | – |
| CCCNC(=O)Nc1ccc(Oc2ccnc3cc(OC)c4c(c23)OCCO4)cc1Cl [Example 81, 1-(2-chloro-4-((5-methoxy-2,3-dihydro-[1,4]dioxino[2,3-f]quinolin-10-yl)oxy)phenyl)-3-propylurea] | < 50 nM | – | < 50 nM | – |
| O=C(Nc1ccc(Oc2ccnc3cc(OCCCN4CCS(=O)(=O)CC4)c4c(c23)OCCO4)cc1Cl)NC1CC1 [Example 58, 1-(2-chloro-4-((5-(3-(1,1-dioxothiomorpholino)propoxy)-2,3-dihydro-[1,4]dioxino[2,3-f]quinolin-10-yl)oxy)phenyl)-3-cyclopropylurea] | < 50 nM | – | < 50 nM | – |
| O=C(Nc1ccc(Oc2ccnc3cc(OCCCN4CCCCC4)c4c(c23)OCCO4)cc1Cl)NC1CC1 [Example 54, 1-(2-chloro-4-((5-(3-(piperidin-1-yl)propoxy)-2,3-dihydro-[1,4]dioxino[2,3-f]quinolin-10-yl)oxy)phenyl)-3-cyclopropylurea] | < 50 nM | – | < 50 nM | – |
| O=C(Nc1ccc(Oc2ccnc3cc(OC4CCOC4)c4c(c23)OCCO4)cc1Cl)NC1CC1 (centres unmarked) [Example 66, 1-(2-chloro-4-((5-((tetrahydrofuran-3-yl)oxy)-2,3-dihydro-[1,4]dioxino[2,3-f]quinolin-10-yl)oxy)phenyl)-3-cyclopropylurea] | < 50 nM | – | < 50 nM | – |
| CC1(N)CCN(CCCOc2cc3nccc(Oc4ccc(NC(=O)Nc5ccc(Cl)c(C(F)(F)F)c5)cc4)c3c3c2OCCO3)CC1 [Example 26, 1-(4-((5-(3-(4-amino-4-methylpiperidin-1-yl)propoxy)-2,3-dihydro-[1,4]dioxino[2,3-f]quinolin-10-yl)oxy)phenyl)-3-(4-chloro-3-(trifluoromethyl)phenyl)urea] | < 50 nM | – | < 50 nM | – |
| O=C(Nc1ccc(Oc2ccnc3cc(OCCCO)c4c(c23)OCCO4)cc1Cl)NC1CC1 [Example 50, 1-(2-chloro-4-((5-(3-hydroxypropoxy)-2,3-dihydro-[1,4]dioxino[2,3-f]quinolin-10-yl)oxy)phenyl)-3-cyclopropylurea] | < 50 nM | – | < 50 nM | – |
| O=C(Nc1ccc(Oc2ccnc3cc(OCCCN4CCOCC4)c4c(c23)OCCO4)cc1Cl)NC1CCC1 [Example 74, 1-(2-chloro-4-((5-(3-morpholinopropoxy)-2,3-dihydro-[1,4]dioxino[2,3-f]quinolin-10-yl)oxy)phenyl)-3-cyclobutylurea] | < 50 nM | – | < 50 nM | – |
